Data on 24 compounds can be found in PMC10939060 (Bioorganic & medicinal chemistry letters, 2022).

The term CLint scaled denotes the rate of metabolic loss divided by the concentration. Low values mean greater metabolic stability, high ones faster metabolism.

One data set concerns the target T1, hM5 (Homo sapiens, UniProt P08912).
T1 sequence (P08912 1-532): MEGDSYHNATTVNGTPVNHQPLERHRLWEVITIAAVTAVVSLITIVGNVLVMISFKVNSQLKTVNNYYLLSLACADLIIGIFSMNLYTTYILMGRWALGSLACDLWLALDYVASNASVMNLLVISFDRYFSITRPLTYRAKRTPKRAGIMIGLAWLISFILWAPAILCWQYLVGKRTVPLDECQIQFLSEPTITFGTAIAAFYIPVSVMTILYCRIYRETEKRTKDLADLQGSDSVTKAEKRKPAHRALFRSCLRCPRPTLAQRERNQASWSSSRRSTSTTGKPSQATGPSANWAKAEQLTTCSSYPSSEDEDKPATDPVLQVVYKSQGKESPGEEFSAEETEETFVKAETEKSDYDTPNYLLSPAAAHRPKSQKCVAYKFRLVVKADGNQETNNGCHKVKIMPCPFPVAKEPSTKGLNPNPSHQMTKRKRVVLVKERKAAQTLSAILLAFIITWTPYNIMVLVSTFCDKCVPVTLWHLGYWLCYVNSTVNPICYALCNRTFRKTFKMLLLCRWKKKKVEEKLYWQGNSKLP
Put plainly: Calcium mobilization assay with hM5-CHO cells, EC80 acetylcholine. The settings on record: for hM5 IC50: antagonist. Type of data set: cell-based. Background: Calcium assays in cells follow changes in intracellular calcium, usually with a dye or a luminescent sensor.

Data set [1] in a line: In vitro clearance. Type of data set: in vitro ADME, human. The settings on record: for Predicted CLhep: human (h).
Data set [2] can be described thus: In vitro clearance. The data set is classed as in vitro ADME, rat. The settings on record: for Predicted CLhep: rat (r).
The target of a further data set is T2, hM2 (Homo sapiens, UniProt P08172).
T2 sequence (P08172 1-466): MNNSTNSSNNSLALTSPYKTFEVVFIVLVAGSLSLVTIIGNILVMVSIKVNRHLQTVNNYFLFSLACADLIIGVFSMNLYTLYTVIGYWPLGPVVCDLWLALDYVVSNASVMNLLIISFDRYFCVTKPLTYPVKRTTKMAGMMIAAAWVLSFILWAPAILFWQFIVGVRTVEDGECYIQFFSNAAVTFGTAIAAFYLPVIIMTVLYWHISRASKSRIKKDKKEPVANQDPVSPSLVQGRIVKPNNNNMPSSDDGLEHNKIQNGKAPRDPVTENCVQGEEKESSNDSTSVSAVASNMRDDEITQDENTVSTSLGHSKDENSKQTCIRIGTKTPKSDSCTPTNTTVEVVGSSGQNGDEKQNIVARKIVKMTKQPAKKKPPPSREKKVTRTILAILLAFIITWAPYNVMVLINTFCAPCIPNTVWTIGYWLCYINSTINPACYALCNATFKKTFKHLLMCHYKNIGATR
Kind of data set: Subtype selectivity, hM2. Type of data set: cell-based. The settings on record: printed as hM2-4.

A further data set has as its target hM3 (Homo sapiens, UniProt P20309). Put plainly: Subtype selectivity, hM3. Type of data set: cell-based. The settings on record: printed as hM2-4.
The target in the next data set is T3, hM4 (Homo sapiens, UniProt P08173).
T3 sequence (P08173 1-479): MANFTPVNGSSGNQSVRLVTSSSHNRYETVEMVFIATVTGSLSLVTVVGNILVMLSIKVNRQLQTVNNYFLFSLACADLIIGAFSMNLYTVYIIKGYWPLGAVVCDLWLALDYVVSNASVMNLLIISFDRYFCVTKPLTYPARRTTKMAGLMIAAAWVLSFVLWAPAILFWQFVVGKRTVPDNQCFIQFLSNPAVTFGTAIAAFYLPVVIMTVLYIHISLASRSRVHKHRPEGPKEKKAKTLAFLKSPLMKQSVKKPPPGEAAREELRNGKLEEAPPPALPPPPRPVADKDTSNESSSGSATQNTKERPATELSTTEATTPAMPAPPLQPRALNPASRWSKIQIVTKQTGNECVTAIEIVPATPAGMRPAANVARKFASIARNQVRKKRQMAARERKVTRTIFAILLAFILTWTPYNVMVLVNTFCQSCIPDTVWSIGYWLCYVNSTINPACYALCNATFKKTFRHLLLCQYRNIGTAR
Put plainly: Subtype selectivity, hM4. The data set is classed as cell-based.

Marks after values point to notes of the source that are not given here.

Sequence of hM3 (P20309 whole entry): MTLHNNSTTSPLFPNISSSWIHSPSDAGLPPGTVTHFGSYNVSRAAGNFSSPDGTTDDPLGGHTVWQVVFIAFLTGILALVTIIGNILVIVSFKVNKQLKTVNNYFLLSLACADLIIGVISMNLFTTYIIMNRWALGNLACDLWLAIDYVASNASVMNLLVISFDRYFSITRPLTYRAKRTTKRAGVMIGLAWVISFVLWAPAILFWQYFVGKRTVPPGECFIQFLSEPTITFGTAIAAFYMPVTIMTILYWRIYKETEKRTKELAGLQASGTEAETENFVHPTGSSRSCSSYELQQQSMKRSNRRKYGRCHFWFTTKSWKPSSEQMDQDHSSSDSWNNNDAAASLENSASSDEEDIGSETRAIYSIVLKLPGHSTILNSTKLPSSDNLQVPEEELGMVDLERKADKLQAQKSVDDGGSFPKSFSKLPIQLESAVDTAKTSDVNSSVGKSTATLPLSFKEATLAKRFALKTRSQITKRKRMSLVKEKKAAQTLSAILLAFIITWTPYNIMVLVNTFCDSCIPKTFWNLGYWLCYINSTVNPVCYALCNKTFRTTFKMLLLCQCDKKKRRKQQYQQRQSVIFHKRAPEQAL

As for `O=C(Nc1cnc2sccc2c1)C1CCN(S(=O)(=O)c2ccc3c(c2)CCO3)CC1` [28d], on hM5, the “hM5 ACh Min” value was “inactive” and the “hM5 IC50” value was “inactive”.

As for `Cc1nc2cc(NC(=O)C3CCN(S(=O)(=O)c4ccc5c(c4)CCO5)CC3)ccc2s1` [compound 20], the “Predicted CLhep” value in “In vitro clearance [1]” was 16 mL/min/kg; in “In vitro clearance [2]”, 60 mL/min/kg. Besides, the “hM5 ACh Min” value at hM5 is 19^c %.

As to `C[C@@H]1C[C@H](C(=O)Nc2ccc3scnc3c2)CCN1S(=O)(=O)c1ccc2c(c1)CCO2` (racemic) [(rac)-24], the “Predicted CLhep” value in “In vitro clearance [1]” is given as 19 mL/min/kg; in the data set “In vitro clearance [2]” it was 62 mL/min/kg. Further, at hM5, the “hM5 ACh Min” value is listed as 2^c %.

Turning to `Cc1nn(C)cc1S(=O)(=O)N1CCC(C(=O)Nc2ccc3scnc3c2)CC1` [29f], the “Predicted CLhep” value in “In vitro clearance [2]” was 28 mL/min/kg.

`O=C(Nc1ccc2ncnn2c1)C1CCN(S(=O)(=O)c2ccc3c(c2)CCO3)CC1` [28b]: at hM5, the “hM5 ACh Min” value was “inactive” and the “hM5 IC50” value is “inactive”.

As for `O=C(Nc1ccc2scnc2c1)C1CCN(S(=O)(=O)c2ccc(Cl)nc2)CC1` [29c], the “Predicted CLhep” value is listed as 11 mL/min/kg in “In vitro clearance [1]” and 33 mL/min/kg in “In vitro clearance [2]”. Further, the “hM5 ACh Min” value at hM5 is listed as 3^b %.

Turning to `C[C@@H]1CN(S(=O)(=O)c2ccc3c(c2)CCO3)CC[C@@H]1C(=O)Nc1ccc2scnc2c1` (racemic) [(rac)-22], the “Predicted CLhep” value in the data set “In vitro clearance [1]” is given as 19 mL/min/kg; in “In vitro clearance [2]” it was 62 mL/min/kg. In addition, at hM5, the “hM5 ACh Min” value is given as 3^c %.

`O=C(Nc1ccc2scnc2c1)C1CCN(S(=O)(=O)c2ccc(Cl)s2)CC1` [compound 4]: the “hM2 IC50” value at hM2 is “inactive”. Besides, the “hM3 IC50” value at hM3 is “inactive”. Further, the “hM4 IC50” value at hM4 was “inactive”.

`O=C(Nc1ccc2cccnc2c1)C1CCN(S(=O)(=O)c2ccc3c(c2)CCO3)CC1` [28f]: the entries for the “Predicted CLhep” value in “In vitro clearance [1]” and in “In vitro clearance [2]” were 17 mL/min/kg and 64 mL/min/kg, respectively.

On to `O=C(Nc1ccc2nncn2c1)C1CCN(S(=O)(=O)c2ccc3c(c2)CCO3)CC1` [28c], for which, at hM5, the “hM5 ACh Min” value is “inactive” and the “hM5 IC50” value is “inactive”.

Consider `O=C(Nc1ccc2scnc2c1)C1CCN(S(=O)(=O)c2ccc3ncsc3c2)CC1` [29a], for which the CLint scaled in the data set “In vitro clearance [1]” (human) came out at 13 mL/min/kg; in the data set “In vitro clearance [2]” (rat), 38 mL/min/kg. For the same compound, the “Predicted CLhep” value in “In vitro clearance [1]” is 13 mL/min/kg; in the data set “In vitro clearance [2]”, 38 mL/min/kg.

With `C[C@@H]1C[C@@H](C(=O)Nc2ccc3scnc3c2)CCN1S(=O)(=O)c1ccc2c(c1)CCO2` (racemic) [(rac)-25], the “Predicted CLhep” value is 18 mL/min/kg in the data set “In vitro clearance [1]” and 62 mL/min/kg in the data set “In vitro clearance [2]”.

In the case of `O=C(Nc1ccc2scnc2c1)C1CCN(S(=O)(=O)c2ccc3ncccc3c2)CC1` [29b], the “Predicted CLhep” value is 10 mL/min/kg in the data set “In vitro clearance [1]” and 53 mL/min/kg in the data set “In vitro clearance [2]”.

For `Cc1nn(C)cc1S(=O)(=O)N1CC[C@H](C(=O)Nc2ccc3scnc3c2)[C@@H](F)C1` (racemic) [(rac)-30a], the “Predicted CLhep” value in the data set “In vitro clearance [1]” is 5 mL/min/kg; in “In vitro clearance [2]”, 55 mL/min/kg.

With `Cc1ccc(S(=O)(=O)N2CCC(C(=O)Nc3ccc4scnc4c3)CC2)cn1` [29d], the figures for the “Predicted CLhep” value in the data set “In vitro clearance [1]” and in the data set “In vitro clearance [2]” were 4 mL/min/kg and 27 mL/min/kg, respectively.

Take `CC1COc2ccc(S(=O)(=O)N3CCC(C(=O)Nc4ccc5scnc5c4)CC3)cc21` (racemic) [(rac)-26]: the “Predicted CLhep” value in “In vitro clearance [1]” is reported as 19 mL/min/kg; in “In vitro clearance [2]” it was 66 mL/min/kg.

For `O=C(Nc1ccc2snnc2c1)C1CCN(S(=O)(=O)c2ccc3c(c2)CCO3)CC1` [28g], the “Predicted CLhep” value in the data set “In vitro clearance [1]” was 18 mL/min/kg; in the data set “In vitro clearance [2]” it was 64 mL/min/kg.

Take `O=C(Nc1ccc2occc2c1)C1CCN(S(=O)(=O)c2ccc3c(c2)CCO3)CC1` [28a]: on hM5, the “hM5 ACh Min” value is “inactive” and the “hM5 IC50” value is “inactive”.

Turning to `C[C@H]1CN(S(=O)(=O)c2ccc3c(c2)CCO3)CC[C@@H]1C(=O)Nc1ccc2scnc2c1` (racemic) [(rac)-23], the entries for the “Predicted CLhep” value in the data set “In vitro clearance [1]” and in the data set “In vitro clearance [2]” were 17 mL/min/kg and 61 mL/min/kg, respectively. The “hM5 ACh Min” value at hM5 is reported as 3^c %.

With `O=C(Nc1ccc2scnc2c1)C1CCN(S(=O)(=O)c2cccnc2)CC1` [29e], the “Predicted CLhep” value in “In vitro clearance [1]” is listed as 10 mL/min/kg; in the data set “In vitro clearance [2]” it was 52 mL/min/kg. Moreover, the “hM5 ACh Min” value at hM5 is reported as 2^b %.

Regarding `O=C(Nc1ccc2nccnc2c1)C1CCN(S(=O)(=O)c2ccc3c(c2)CCO3)CC1` [28e], at hM5, the “hM5 ACh Min” value is “inactive” and the “hM5 IC50” value was “inactive”.

For `Cc1ncc(S(=O)(=O)N2CC[C@H](C(=O)Nc3ccc4scnc4c3)[C@@H](F)C2)s1` (racemic) [(rac)-30c], the entries for the “Predicted CLhep” value in the data set “In vitro clearance [1]” and in “In vitro clearance [2]” were 5 mL/min/kg and 37 mL/min/kg, respectively.

On to `Cn1ncc(S(=O)(=O)N2CC[C@H](C(=O)Nc3ccc4scnc4c3)[C@@H](F)C2)c1Cl` (racemic) [(rac)-30b], for which the figures for the “Predicted CLhep” value in the data set “In vitro clearance [1]” and in “In vitro clearance [2]” were 4 mL/min/kg and 29 mL/min/kg, respectively.

As to `Cn1ccnc1NC(=O)C1CCN(S(=O)(=O)c2ccc3c(c2)CCO3)CC1` [compound 6], the “hM5 IC50” value on hM5 was “inactive”.
